{"source": "patent US12048699B2", "about": "“Cancer treatment methods based on TP53 mutation status and hypermutation” (TAKEDA PHARMACEUTICAL COMPANY LIMITED, priority 2018, dated 2024)", "key": {"human hepatocytes": {"tested_on": "human hepatocytes", "assay": "metabolism in human hepatocytes", "assay_type": "in vitro ADME", "settings": "metabolite structures shown in drawing 7"}, "[1]": {"tested_on": "human primary tumor xenograft models", "assay": "phase 2-like preclinical study in human primary tumor xenograft (PDX) models, % ΔTGI response vs mutation status", "assay_type": "in vivo, Balb/c nude mice", "settings": "77 PDX models, crystalline form A of Compound 1 hemihydrate, 60 mg/kg, Bid, po, 21 days, 3 days on 4 days off", "description": "Compound 1 is an investigational drug under clinical development for cancer treatment. Compound 1 achieves anti-tumor effects by inhibiting Cdc7 kinase, which is involved in DNA replication and repair. Predictive biomarker identification was investigated using data derived from a phase 2-like preclinical study, that is human primary tumor xenograft models using Balb/c nude mice ([…], female, 6-8 weeks old, 18-22 g). For each model, 6 tumor bearing mice were randomized into 2 groups. Tumor fragments from seed mice inoculated with selected PDX tumors were harvested and used for inoculation into Balb/c nude mice. Each mouse was inoculated subcutaneously at the right flank with one tumor fragment (2-3 mm in diameter). The treatments were started when mean tumor size reached approximately 200-250 mm^3. Mice were dosed orally with either vehicle or Compound 1 (crystalline form A of Compound 1 hemihydrate, 60 mg/kg, Bid, po, 21 days, 3 days on 4 days off). TP53 mutation status and hypermutation status as measured by microsatellite instability/stability (MSI/MSS) status were identified as predictive biomarkers for cancer treatment with Compound 1.\nWhole exome sequencing (WES) and RNA sequencing (RNASeq) were done for 92 xenograft models whose cancer types are colon (n=40), pancreas (n=24), non-small cell lung (n=23), and ovary cancer (n=5).\nIn this study, % ΔTGI (percent delta tumor growth inhibition) was used and its mathematical definition is as follows.\nIn the above equation, Tt and T0 represent the sizes of tumor in treatment at time t and 0 and similarly Ct and C0 mean the sizes of tumor in control (vehicle) at the same time points t and 0. Therefore, a large % ΔTGI indicates a higher degree of tumor growth inhibition in treatment than in vehicle.\nBinary response was inferred by categorizing % ΔTGI, so that samples were classified as responders with high % ΔTGI and non-responders with low % ΔTGI. Chi-square test was run to evaluate the potential association between the class labels (responder vs. non-responder) and mutational status (MUT vs. WT). […]"}}}
{"smiles": "Cc1[nH]ncc1-c1cc2nc([C@@H]3CC4CCN3CC4)[nH]c(=O)c2s1", "note": "[Compound 1, 2-[(2S)-1-azabicyclo[2.2.2]oct-2-yl]-6-(3-methyl-1H-pyrazol-4-yl)thieno[3,2-d]pyrimidin-4(3H)-one]", "values": [{"measurement": "metabolism to metabolites", "setting": "human hepatocytes", "result": "can be metabolized to compounds of the following structures"}, {"measurement": "association of TP53 mutation with response (% ΔTGI, responder vs. non-responder)", "setting": "[1]; Chi-square test / decision tree", "result": "most significantly associated with response"}, {"measurement": "association of CHD family genes mutation with response (% ΔTGI, responder vs. non-responder)", "setting": "[1]; decision tree", "result": "associated with non-response"}, {"measurement": "association of hypermutation with response (% ΔTGI, responder vs. non-responder)", "setting": "[1]; decision tree", "result": "associated with non-response"}]}
